The values below come from patent US10350239B2, “Pharmaceutical composition for treating cancer comprising trypsinogen and/or chymotrypsinogen and an active agent selected from a selenium compound, a vanilloid compound and a cytoplasmic glycolysis reduction agent” (Propanc Pty Ltd, priority 2009, dated 2019).

The conditions of data set [1]: background statement; cited from earlier work.
Data set [2] relates to MIAPaCa-2. The experiment in a line: CellTiter-Blue cell growth assay, MIAPaCa-2. Format: cell-based, human. As to conditions: 72 hours, Tables 11-13. The protocol:
(§1) All the cell lines used in these studies were of human origin and were sourced from the American Type Culture Collection (ATCC) (Rockville, Md., USA).
(§2) The cells were cultured at 37° C. in a humidified cell culture incubator supplied with 95% air/5% CO2.
(§3) Test Article concentrations were tested in triplicates for each cell line. The CellTiter-Blue® Assay was carried out on all plates 72 hours post addition of Test Articles.
(§4) Following incubation of cells in Test Article-containing media, 10 μL of CellTiter-Blue® was added to each well and incubated with cells for up to 4 hours. Fluorescence was measured using a Spectramax Gemini XPS Fluorometer. All data were recorded and entered into Microsoft® Excel spreadsheets for interpretation.
(§5) Data collected from CellTiter-Blue® assays were plotted as dose response curves for IC50 determination, and as isobolograms to assess the type of interaction between Test Article combinations. For IC50 determinations, growth inhibition was calculated and plotted against compound concentration. In these plots, the X-axis (compound concentration) was represented in a logarithmic scale. IC50 concentration was calculated as the half maximal (50%) inhibitory concentration (IC) for each compound using GraphPad Prism version 5.0 for Mac OSX (GraphPad Software, San Diego Calif., USA).

Data set [3] has as its system A549. The experiment in a line: CellTiter-Blue cell growth assay, A549. It counts as cell-based, human. As to conditions: A-549; 72 hours; Tables 11-13. The protocol: as §1, §2, §3, §4, §5
Data set [4] deals with HCT-15. The data set is described as follows: CellTiter-Blue cell growth assay, HCT-15. It counts as cell-based, human. As to conditions: 72 hours, Tables 11-13. The protocol:
as §1, §2, §3, §4, §5

Data set [5] relates to A-549 cells. The data set is described as follows: Isobolographic combination assay, A-549 cells. It counts as cell-based, human. The protocol:
(§6) The dose-response relations of agents can be used to construct a model giving the expected effect of a combination. The combination of drugs A and B shall be termed (da,db) where da and db are doses of A and B. Effect is treated as a mathematical function, E(da,db). E is sometimes expressed as a fractional effect, then the survival fraction is S: S=1-E. Finally, Da and Db are doses of drugs A and B given separately, which produce an isoeffective response with the combination. Isoboles (iso-effect curves) can be constructed based on the assumption that there is no interaction between the drugs used in combination. The combination (da, db) is represented by a point on a graph that has axes representing doses of the individual drugs. […]
(§7) This ratio is also called g value and it used to determine the type of interaction. In this case the calculated isobole is concave. […]
(§8) The initial concentrations for each compound in each cell line were decided based on the calculated IC50 in a way that the IC50 for each drug fell within the concentration in the dilution series. […]
(§9) Following incubation of cells in Test Article-containing media, 10 μL of CellTiter-Blue® was added to each well and incubated with cells for up to 4 hours. Fluorescence was measured using a Spectramax Gemini XPS Fluorometer. All data were recorded and entered into Microsoft® Excel spreadsheets for interpretation. […]

The subject of data set [6] is HCT-15 cells. The experiment in a line: Isobolographic combination assay, HCT-15 cells. Format: cell-based, human. The protocol:
as §6, §7, §8, §9

Data set [7] relates to MIAPaCa-2 cells. The experiment in a line: Isobolographic combination assay, MIAPaCa-2 cells. It counts as cell-based, human. The protocol:
as §6, §7, §8, §9

Data set [8] concerns A-549, HCT-15 and MIAPaCa-2 cells. The experiment in a line: CellTiter-Blue cell growth assay, three selected cell lines together. Format: cell-based, human. The protocol:
as §1, §2, §3, §4, §5

For data set [9], the system named is bFGF-induced angiogenesis. The experiment in a line: AngioChamber assay (fibrous capsule wet weight). Format: in vivo. As to conditions: female FvB mice, once daily Day 0-4, capsule excised Day 5, p<0.05. An excerpt:
The AngioChamber™ assay utilises the normal physiological process of wound healing, to promote fibrous capsule formation around an implanted chamber (Wood, J. M., Bold, G., Buchdunger, E., Cozens, R., et al. PTK787/ZK 222584, a Novel and Potent Inhibitor of Vascular Endothelial Growth Factor Tyrosine Kinases, Impairs Vascular Endothelial Growth Factor-Induced Responses and Tumour Growth After Oral Administration. Cancer Research, 60 (8):2178-2189 (2000)). The inclusion of Basic Fibroblast Growth Factor (bFGF) in the chamber supports the fibrouse capsule formation while inducing blood vessel development. […] The fibrous capsule around the chamber was removed and the wet weight recorded. […] The vascularised fibrous capsule that had formed around each chamber was carefully removed and the wet weight recorded immediately. Angiogenesis inhibition by Test Articles (%) was calculated using the following formula: % Inhibition=[(A−B)/(A−C)×100] where A is the mean capsule weight from mice with implanted AngioChambers™ containing growth factor and treated with Vehicle Control (Group 2), B is the mean capsule weight from mice with implanted AngioChambers™ containing growth factor and treated with Test Article (Groups 3-5), and C is the mean capsule weight from mice with implanted AngioChambers™ without growth factor and treated with Vehicle Control (Group 1). […]

Data set [10] in a line: Body weight in the AngioChamber study. Format: in vivo. Conditions: female FvB mice; Day 0 to Day 5; 60 mg/kg p.o. daily. The protocol: Body weight measurements were recorded for all animals on the first treatment day (Day 0) and then daily until the termination day of the study (Day 5).
Each animal's body weight was measured immediately prior to dosing. The volume of dosing solution administered to each animal was calculated and adjusted based on individual body weight.
All statistical calculations were performed using SigmaStat 3.0 (SPSS Australasia, North Sydney, NSW, Australia). A paired t-test was used to determine the significance in body weight change within a treatment group between Day 0 and the termination day of the study. […] Significant induction of the fibrous capsule formation by bFGF is considered to be essential to accept the study results. A One-Way Analysis of Variance (ANOVA) was performed on the capsule weight data at the end of the study. Where significant differences were found, All Pairwise Multiple Comparison and Multiple Comparison versus Control Group Procedures (Holm-Sidak Method) were performed. A p value of less than 0.05 was considered significant.

In the case of `C[Se]CC[C@H](N)C(=O)O` [selenomethionine], in [1], the “toxic level (organic forms of selenium)” value is given as “about 3500 micrograms daily”.
As to Trypsinogen, the “IC50 values” came to 280 µg/mL in data set [2], 230 µg/mL in data set [3] and 410 µg/mL in data set [4]. Further, the “Maximum Inhibition (%)” value was found to be 82.3% in data set [2], 75.7% in [3] and 77.2% in data set [4]. Besides, the “type of interaction in combination with chymotrypsinogen (isobolographic, in words)” value in data set [5] is given as “wide-range of synergistic interaction”; in data set [6], “non-antagonistic interaction”; in data set [7] it was “wide-range of synergistic interaction”. The results for the “type of interaction in combination with α-amylase (isobolographic, in words)” value in [5], in [6] and in [7] were “narrow-range type”, “non-synergistic interaction” and “wide-range type”, respectively. Moreover, in data set [8], the “IC50 values, range over all three cell lines” value was in the range of 230 to 410 µg/mL.
Regarding `CNC(=O)c1cc(Oc2ccc(NC(=O)Nc3ccc(Cl)c(C(F)(F)F)c3)cc2)ccn1` [Sorafenib], the “angiogenesis (capsule wet weight) compared to the Induction Control (Vehicle Control with bFGF)” value in [9] (JBp1 and JBp1-DCM i.p., Sorafenib 60 mg/kg p.o.) is recorded as “significant reduction in angiogenesis”. Moreover, in data set [9], the “angiogenesis (capsule wet weight) compared with JBp1 monotherapy” value is “significantly reduced angiogenesis”. Further, the “body weight loss at termination of the study” value in data set [10] stood at 5.6%.
